Source: patent US20250164396A1, “METHOD FOR VISUALIZING DENATURED STATE OR AGGREGATED STATE OF PROTEIN” (TOHOKU UNIVERSITY, priority 2022, published 2025)
One block for each compound: values may come before it.

Columns and labels:
[1] = biological target: T1, Bovine carbonic anhydrase (Bos taurus, UniProt P00921); assay: Fluorescence response of ONBD probes to heat denaturation of carbonic anhydrase; conditions: 1 mM ONBD compound; heated from 25° C. by 5° C. every 180 seconds; FIG. 1
T1 construct: purchased Aldrich C3934
Description: The PCR tube was heated with a protocol to increase the temperature by 5° C. every 180 seconds from 25° C. using a real-time PCR system (Takara Bio Inc., Thermal Cycler Dice, TP800). The fluorescence (FAM mode for ONBD compounds) was measured at the last 15 seconds of each step. Sypro Orange (Invitrogen S6650, 5000× concentration in DMSO) of the comparison target was added to a final concentration of 10×, the same operation was carried out, and the fluorescence was measured in ROX mode. The ONBD compounds used were the following five types: MeONBD, iPrONBD, nBuONBD, iBuONBD, and octylONBD.

HSP90 [2] = assay: SDS-PAGE fluorescence detection of denatured HSP90 in HeLa cell lysate, with or without geldanamycin; assay type: binding; conditions: probe 1 mM, geldanamycin 50 μM, each temperature for 5 minutes, pellet fraction; FIG. 16
Description: HeLa cells were scraped with a scraper and washed three times with ice-cold PBS, and a protease inhibitor cocktail (Nacalai, 25955-24) was resuspended in ice-cold M-PER buffer (Thermo Fisher Scientific, 78503) and allowed to stand on ice for 10 minutes. After centrifugation at 20,000×g for 20 minutes at 4° C., the supernatant was separated from the cell lysate. The protein concentration was determined by using the BCA method. To the supernatant (2 mg/ml), the same amount of geldanamycin (TCI, […]; final concentration: 50 μM) and DMSO were added, followed by treatment at room temperature for 10 minutes. […] A stock solution (DMSO solution) of 100 mM ONBD was added to the sample to a final concentration of 1 mM and allowed to stand at 37° C. for 30 minutes, and the solution was then transferred to a PCR tube. The PCR tube was heated using a thermal cycler (MiniAmp Plus) at each temperature for 5 minutes and then allowed to stand at room temperature. The sample was centrifuged at 20,000×g for 15 minutes at 4° C. In 1D SDS-PAGE (Bio-Rad, 4-10% acrylamide gel) of the pellet fraction, SDS-PAGE was performed while mixing with 1×SDS sample buffer and heating for 5 minutes at 95° C. Using various probes, SDS-PAGE was performed in the same manner as in Example 17 under heating conditions of 45° C. for 5 minutes (FIG. 17). […]

HSP90 [3] = assay: Two-dimensional electrophoresis of probe-labelled HeLa lysate, denatured HSP90 with or without geldanamycin; assay type: binding; conditions: probe 1 mM, geldanamycin 50 μM, 45° C. for 5 minutes, total protein; FIG. 18
Description: HeLa cells were scraped with a scraper and washed three times with ice-cold PBS, and a protease inhibitor cocktail (Nacalai, 25955-24) was resuspended in ice-cold M-PER buffer (Thermo Fisher Scientific, 78503) and allowed to stand on ice for 10 minutes. After centrifugation at 20,000×g for 20 minutes at 4° C., the supernatant was separated from the cell lysate. The protein concentration was determined by using the BCA method. To the supernatant (2 mg/ml), the same amount of geldanamycin (TCI, […]; final concentration: 50 μM) and DMSO were added, followed by treatment at room temperature for 10 minutes. […] A stock solution (DMSO solution) of 100 mM iPrONBD was added to the sample to a final concentration of 1 mM and allowed to stand at 37° C. for 30 minutes, and the solution was then transferred to a PCR tube. The PCR tube was heated using a thermal cycler (MiniAmp Plus) at 45° C. for 5 minutes and then allowed to stand at room temperature. A sample was prepared according to the protocol of the ReadyPrep 2-D cleanup kit (Bio-Rad), and the final pellets obtained were dissolved in 15 μL of swelling buffer (containing ampolyte, pH: 3-10) included with the Auto2D Glycine Type Reagent Kit, followed by two-dimensional electrophoresis (FIG. 18).

α-Synuclein fibril = biological target: T2, α-Synuclein fibril (Homo sapiens, UniProt P37840); assay: Quantification of aggregated state of α-synuclein fibril by probe fluorescence; conditions: 500 nM fibril, 37° C.; FIG. 3
T2 construct: purchased Cosmo Bio Co., Ltd. SYN03
Description: α-Synuclein fibril (Cosmo Bio Co., Ltd., SYN03) was diluted with 10 mM MES buffer (pH: 7.4) to prepare a 500 nM solution. The solution was dispensed in 50 μL portions in a 96-well half well black plate (Greiner, 675086). […] The fluorescence (using filters for Ex: […]) was measured in a plate reader (Teccan, Infinite 200 Pro F PLEX) under constant temperature conditions at 37° C. with plate shaking at 1 second per minute. The ONBD compounds used were three types: iPrONBD and octylONBD described above, as well as PEGONBD shown below.

[4] = biological target: T3, bovine carbonic anhydrase (CAII) (Bos taurus, UniProt P00921); assay: Detection of heat-denatured CAII in HEK293FT cell disruption solution by two-dimensional electrophoresis, with or without ligand; assay type: binding
T3 construct: purchased Aldrich C3934
Description: Thereafter, centrifugation was performed at 14,000×g for 10 minutes, and the supernatant was collected. […] The PCR tube was heated in a thermal cycler (Applied Biosystems, Mini Amp Plus) at 65° C. for 5 minutes and then allowed to stand at room temperature. The subsequent protocol to prepare two-dimensional electrophoresis samples was performed in the following two ways.
(Protocol to collect all proteins) A sample was prepared according to the protocol of the ReadyPrep 2-D cleanup kit (Bio-Rad), and the final pellets obtained were dissolved in 15 μL of swelling buffer (containing ampolyte, pH: 3-10) included with the Auto2D Glycine Type Reagent Kit.
(Protocol to collect pellets) The heated sample was centrifuged (at 20,000×g for 20 minutes), the supernatant was discarded, and the remaining pellets were dissolved in 15 μL of swelling buffer (containing ampolyte, pH: 3-10) included with the Auto2D Glycine Type Reagent Kit.
Two-dimensional electrophoresis was performed according to the long-term protocol of Auto 2D Plus (Merck), and fluorescence images of the resulting gel were obtained using a fluorescence imager (Vilver Lourmat, Fusion Solo S). […] The ONBD compound used was iPrONBD described above.

T3 sequence (P00921 whole entry): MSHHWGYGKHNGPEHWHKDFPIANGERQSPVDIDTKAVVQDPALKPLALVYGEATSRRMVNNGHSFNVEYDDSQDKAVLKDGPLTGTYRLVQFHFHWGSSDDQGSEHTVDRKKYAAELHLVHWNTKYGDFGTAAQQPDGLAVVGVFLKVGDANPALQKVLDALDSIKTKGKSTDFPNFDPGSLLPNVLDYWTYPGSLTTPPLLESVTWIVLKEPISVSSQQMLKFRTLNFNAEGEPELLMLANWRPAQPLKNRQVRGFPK
T1 sequence (P00921 whole entry): as above

SMILES: CC(C)Oc1ccc([N+](=O)[O-])c2nonc12 [iPrONBD]
increase in the fluorescence intensity on heating [1]: the increase in the fluorescence intensity was significant | visualization of ligand-induced heat denaturation resistance of HSP90 by probe fluorescence (HSP90 [2]): it was possible to visualize the acquisition of target heat denaturation resistance by ligand addition | visualization of ligand-induced change in heat denaturation resistance of HSP90 by probe fluorescence (HSP90 [3]): it was possible to visualize changes in the heat denaturation resistance of the target HSP90 by ligand addition

SMILES: CCCCCCCCOc1ccc([N+](=O)[O-])c2nonc12 [octylONBD]
increase in fluorescence intensity over time in the presence of α-synuclein fibril (α-Synuclein fibril): the increase in the fluorescence intensity was significant

suitability as probe under the denaturation conditions ([4]; 65° C., 5 minutes): appropriate probe
SMILES: O=[N+]([O-])c1ccc(Br)c2nonc12 [Br-NBD]
reduction in the fluorescence intensity of CA by brinzolamide, comparison of probes ([4]; iPrONBD versus BrNDB, FIG. 15): the reduction in the fluorescence intensity of CA was more significant
